Test results published in patent US4624952A, “Pyridazine and pyrimidine compounds active on the central nervous system as sedatives or anticonvulsants” (Sanofi, priority 1983, dated 1986).
Where a name gives a salt, the structure may show the parent alone. Read-outs that look alike come from different tables or passages of the source.

Legend:
[1] = tested on: convulsions induced by an electric shock in Charles River CDl mice; assay: Antagonism of the convulsions induced by an electric shock; type: in vivo; settings: 1 h; mouse; oral, 60 min before electric shock (12.5 volts, 0.3 seconds); read-out: Median effective dose (ED50) Antagonism of the electric shock
Protocol: (§1) The anti-epileptic effect of the products in the mouse was assessed on a model of convulsions provoked by an electric shock, and on a model of convulsions induced by a chemical agent: bicuculline.
The test was slightly modified from that of SWINYARD et al (1952) and ASAMI et al (1974). The equipment was composed of a Racia shock generator provided with two ocular electrodes delivering a current of 12.5 volts for 0.3 seconds. The batches were constituted by 10 Charles River CDl mice, weighing between 20 and 24 g. The products were administered by the oral route, 60 minutes before the electric shock. The animals presenting no tonic extension of the rear limbs were considered as being protected from the convulsive crisis.

[2] = tested on: spontaneous motility of female Charles River CDl mice; assay: Effect of the products on the spontaneous motility (actimeter test); type: in vivo; settings: Mus musculus, po, 0.75 h, 45 min after administration, recorded 10 min, vs controls, * p 0,05, ** p 0,01 (Student test), read-out: Locomotor activity Score (p.cent/controls); for change in vivo at 100 mg/kg: 100 mg/kg p.o.; for change in vivo at 250 mg/kg: 250 mg/kg p.o.
Protocol: (§2) The sedative effect is translated by the reduction of the spontaneous motility of the animals. This was measured by the actimeter test developed by BOISSIER and SIMON (1965). The equipment was composed of actimetric cages, of the Apelab type (26×21.5×10 cm), through which pass two light rays which act on a photoelectric cell. The batches were constituted by 12 female Charles River CDl mice weighing between 20 and 24 g. The animals were placed individually in the cages 45 minutes after the oral administration of the products at the dose of 250 mg/kg or at the dose of 100 mg/kg. Each passage through a light beam was counted by an individual meter. The scores corresponding to the movements of the animals were recorded for 10 minutes and compared with the scores made by the batches of control animals, treated solely by the vehicle (0.1N HCl).

[3] = Lethal dose in the mouse after acute administration; settings: in vivo; for mortality at 72 h: po, read-out: % of toxicity (animals which die); for LD50 at 72 h: oral, calculated, read-out: LD50 (DL50)
Protocol: The products were administered by the oral route to batches of 5 female Charles River CDl mice, weighing between 20 and 24 g. They were solubilized in 0.1N HCl.
Toxicity was noted during the 72 hours following administration of the products. The LD50 was calculated for two products.
The results expressed in percentage of animals which die in the […] consecutive to the oral administration of the products are noted in the preceding Table.

[4] = tested on: convulsions provoked by bicuculline in Charles River CDl mice; assay: Antagonism of the convulsions provoked by bicuculline; type: in vivo; settings: mouse; oral, 60 min before bicuculline 0.8 mg/kg i.v.; read-out: Median effective dose (ED50) Antagonism of Bicuculline
Protocol: as §1
The batches were constituted by 10 Charles River CDl mice, weighing between 20 and 22 g. The products were administered by the oral route, 60 minutes before the bicuculline (0.8 mg/kg, i.v.). The appearance of tonic convulsions was noted during the 60 minutes following the injection of the bicuculline.

[5] = tested on: loss of the turn-around reflex in Charles River CDl mice; assay: Potentialization of narcosis by pentobarbital; type: in vivo; settings: po; mouse; product 60 min before pentobarbital 20 mg/kg i.p.
Protocol: With a view to assessing the hypnogenic power of the products, we have studied their capacity to potentialize the effects of a subnarcotic dose of pentobarbital in the mouse. The batches were constituted by 10 Charles River CDl mice, weighing between 20 and 24 g. The pentobarbital (20 mg/kg, i.p.) was administered 60 minutes after administration of the products. The criterion of sleep-induction retained was the loss of the turn-around reflex.

[6] = tested on: turnaround reflex of mice; assay: Loss of turnaround reflex (sleep-inducing effect); type: in vivo, mouse; settings: 100 mg/kg, oral
Protocol: as §2
On the other hand, at the dose of 100 mg/kg, the CM 41378 provokes a loss of turnaround reflex characteristic of a sleep-inducing effect in 50% of the animals treated.

[7] = tested on: spontaneous motility of female Charles River CDl mice; assay: Effect of the products on the spontaneous motility (actimeter test); type: in vivo; settings: Mus musculus, po, 0.75 h, 45 min after administration, recorded 10 min, vs controls, read-out: Locomotor activity Score (p.cent/controls)

Structure (SMILES) | ED50 [1] [mg/kg] | change in vivo at 100 mg/kg [2] [%] | mortality at 72 h ([3]; 250 mg/kg p.o.) [%] | mortality at 72 h ([3]; 500 mg/kg p.o.) [%] | mortality at 72 h ([3]; 1000 mg/kg p.o.) [%] | change in vivo at 250 mg/kg [2] [%] | ED50 [4] [mg/kg] | LD50 at 72 h [3] [mg/kg] | ED50 [5] [mg/kg] | loss of turnaround reflex characteristic of a sleep-inducing effect, animals treated [6] [%] | change in vivo at 150 mg/kg ([7]; 150 mg/kg p.o., ** p 0,01 (Student test)) [%] | change in vivo at 10 mg/kg ([7]; 10 mg/kg p.o., * p 0,05 (Student test)) [%]
OC1CCN(c2ccc(-c3cccc(C(F)(F)F)c3)nn2)CC1 [CM 40857] | 63 | -87 | – | – | – | – | – | – | – | – | – | –
OC1CCN(c2ncc(Cl)c(-c3ccccc3Cl)n2)CC1 [CM 40858, Hydrobromide of 5-chloro-6-(2-chlorophenyl)-2-(4-hydroxy-piperidino)pyrimidine] | 49 | – | 0 | 0 | 0 | -20 | – | – | – | – | – | –
OC1CCN(c2ccc(-c3ccccc3Cl)nn2)CC1 [CM 40907, 3-(4-hydroxy-piperidino)-6-(2-chlorophenyl)pyridazine] | 16 | -66 | – | – | – | – | 38 | 807 | 96 | – | – | –
OC1CCN(c2ccc(-c3ccc(Cl)cc3)nn2)CC1 [CM 41127] | 28 | -68 | 0 | 0 | – | – | 98 | – | – | – | – | –
OC1CCN(c2ccc(-c3ccc(Cl)c(Cl)c3)nn2)CC1 [SR 41155] | – | -82 | 0 | 100 | 100 | – | – | – | 20 | – | – | –
OC1CCN(c2ccc(-c3ccccc3)nn2)CC1 [SR 41171] | 86 | -34 | 0 | 0 | 100 | – | 83 | – | – | – | – | –
CCCC(=O)OC1CCN(c2ccc(-c3ccccc3Cl)nn2)CC1 [SR 41172, 3-(4-butyroyloxypiperidino)-6-(2-chlorophenyl)-pyridazine] | 28 | -32 | 0 | 0 | 100 | – | 39 | – | – | – | – | –
O=C(OC1CCN(c2ccc(-c3ccccc3Cl)nn2)CC1)C1CC1 [SR 41174] | 92 | -15 | – | – | – | – | – | – | – | – | – | –
OC1CCN(c2ccc(-c3ccc(F)cc3)nn2)CC1 [SR 41184] | 48 | -91 | 0 | 60 | 100 | – | – | – | – | – | – | –
COc1ccc(-c2ccc(N3CCC(O)CC3)nn2)cc1 [SR 41185] | – | – | 0 | 0 | 0 | -78 | – | – | – | – | – | –
OC1CCN(c2ccc(-c3cccc(Cl)c3)nn2)CC1 [SR 41188] | 45 | -77 | 0 | 0 | 60 | – | – | – | – | – | – | –
OC1CCN(c2ccc(-c3ccccc3Cl)nn2)C1 (stereo not drawn) [SR 41254] | – | -34 | 0 | 0 | 20 | – | – | – | – | – | – | –
OCC1CCN(c2ccc(-c3ccccc3Cl)nn2)C1 (stereo not drawn) [SR 41259] | – | -19 | – | – | – | – | – | – | – | – | – | –
OCCC1CCN(c2ccc(-c3ccccc3Cl)nn2)CC1 [SR 41261] | – | -27 | – | – | – | – | – | – | – | – | – | –
OC1CCN(c2ccc(-c3ccc(Cl)cc3Cl)nn2)CC1 [SR 41378, 3-(4-hydroxy-piperidino)-6-(2,4-dichloro-phenyl)pyridazine] | 30 | – | – | – | – | – | 5.7 | 423 | 21 | 50 | – | –
OC1CCN(c2nccc(-c3ccc(Cl)cc3)n2)CC1 [SR 41554] | 145 | – | 0 | 0 | 0 | -26 | 147 | – | 66 | – | – | –
OC1CCN(c2ncc(Cl)c(-c3ccc(Cl)cc3)n2)CC1 [SR 41556] | – | – | 0 | 0 | 0 | -29 | – | – | – | – | – | –
OC1CCN(c2ccc(-c3ccccc3F)nn2)CC1 [SR 41558] | 115 | – | 0 | 0 | 80 | -93 | 30 | – | – | – | – | –
Oc1ccccc1-c1ccc(N2CCC(O)CC2)nn1 [SR 41559] | – | – | 0 | 0 | 0 | -66 | – | – | – | – | – | –
OCCN(CCO)c1nccc(-c2ccc(Cl)cc2)n1 [SR 41590] | – | – | 0 | 0 | 40 | – | – | – | – | – | – | –
OCCN(CCO)c1nccc(-c2ccccc2Cl)n1 [SR 41591] | – | – | 0 | 0 | 0 | – | – | – | – | – | – | –
O=[N+]([O-])c1ccccc1-c1ccc(N2CCC(O)CC2)nn1 [SR 41673, 3-(4-hydroxy-piperidino)-6-(2-nitrophenyl)-pyridazine] | 27 | – | 0 | 0 | 20 | -61 | 81 | – | – | – | – | –
CNC(=O)OC1CCN(c2ccc(-c3ccccc3Cl)nn2)CC1 [SR 41820, 3-(4-methylcarbamoyloxy-piperidino)-6-(2-chloro-phenyl)pyridazine] | 10 | – | – | – | – | – | 13 | – | – | – | – | –
OC1CCN(c2ccc(-c3cc(Cl)ccc3Cl)nn2)CC1 [SR 41932] | 30 | – | 0 | 0 | 100 | – | 131 | – | – | – | -59 | –
CN(C)C(=O)OC1CCN(c2ccc(-c3ccccc3Cl)nn2)CC1 [SR 42095] | 2 | – | – | – | – | – | 1.6 | – | 7.4 | – | – | -28
OC1CCN(c2ccc(-c3cccc4ccccc34)nn2)CC1 [SR 42399] | 38 | – | 0 | 0 | – | – | – | – | – | – | – | –
Clc1ccccc1-c1ccc(N2CCC3(CC2)OCCO3)nn1 [SR 42487, 3-[1,4-dioxa-8-aza-spiro[4,5]decane-8-yl]-6-(2-chloro-phenyl)pyridazine] | 57 | -42 | 0 | 0 | 0 | – | – | – | – | – | – | –
O=C1CCN(c2ccc(-c3ccccc3Cl)nn2)CC1 [SR 42488, 3-(4-oxo-iperidino)-6-(2-chlorophenyl)pyridazine] | 40 | – | 0 | 0 | 0 | – | 35 | – | 67 | – | – | –
